Consider six compounds from patent publication US20210177893A1, “Composition and method for treating and healing Medication-Related Osteonecrosis of the Jaw (MRONJ)” (priority 2019, published 2021).

One data set has as its system MRONJ lesions. In words: Clinical observation of MRONJ patients (Example 1). Conditions: one patient on intravenous zoledronate, multiple myeloma; lesion smoothed, antibiotic regimen; observed a little over a year. Type of data set: in vivo, human.
For data set [1] the following is noted: in the glycerin gels; cited from earlier work.
In data set [2] the test system is capillary neoangiogenesis. Conditions: cited from earlier work.
Data set [3] deals with MRONJ. Conditions: out of 24 patients treated with 0.12% chlorhexidine; cited from earlier work.
In data set [4] the test system is MRONJ. The conditions noted are these: oral alendronate users, 208 patients; cited from earlier work.
The subject of data set [5] is oral mucosal cells (human gingival fibroblasts and keratinocytes). The conditions noted are these: direct application, in vitro; cited from earlier work.

Regarding Augmentin, the “outcome of bone lesion” value in the data set with MRONJ lesions is “continued to increase in size and did not heal”.
`[F][Sn][F]` [stannous fluoride]: the stability result in data set [1] is “relatively stable”.
In the case of `NCCC(O)(P(=O)(O)O)P(=O)(O)O` [pamidronate], the “effect on new formation of capillaries from blood vessels (capillary neoangiogenesis)” value in data set [2] is given as “inhibit the new formation of capillaries from blood vessels”.
On to `[H]/N=C(\N/C(=N/[H])NCCCCCCNC(=N)NC(=N)Nc1ccc(Cl)cc1)Nc1ccc(Cl)cc1` [chlorhexidine], for which, in the data set with MRONJ [3], the “patients who experienced MRONJ progression” value is 13 patients, the “patients who experienced MRONJ resolution” value is given as 3 patients and the “patients who experienced no change in ONJ status” value is reported as 8 patients.
With `NCCCC(O)(P(=O)(O)O)P(=O)(O)O` [alendronate], the MRONJ prevalence rate with MRONJ [4] was 4%.
Turning to `O=P(O)(O)C(O)(Cn1ccnc1)P(=O)(O)O` [zoledronic acid], the “effect on the life of oral mucosal cells” value in data set [5] is “deleterious effect on the life of these cells”.
